Article PMC10762078, “Role of UPF1-LIN28A interaction during early differentiation of pluripotent stem cells” (Nature Communications, 2024)
Ends that are not written are not given here.

Assays:
[1] = system: nonsense-mediated mRNA decay (NMD); test: NMD reporter (Gl, GPx1) mRNA by RT-qPCR in LIN28A-expressing HeLa cells with CPP-peptides (Fig. 5c); assay type: cell-based; conditions: for relative GPx1 mRNA level / relative Gl mRNA level: normalised to MUP
Procedure: Fig. 5 CPP-conjugated peptide inhibits UPF1-LIN28A interaction. a Schematic representation of designated CPP-conjugated peptides. The amino acid sequences and positions of each peptide on UPF1 are indicated. CPP-P1 and -P2 served as negative controls. CPP-FITC was used to evaluate cell-penetrating ability in cells. b 293T cell lysates co-transfected with pCMV-MYC-UPF1 and pGEX-GST-LIN28A and incubated with the indicated CPP-conjugated peptides were employed for GST pull-down. c Relative levels of NMD reporters were measured in LIN28A-expressing HeLa cells incubated with the indicated CPP-conjugated peptides. mRNA level was normalised to that of MUP mRNA. d PLA was performed using LIN28A-overexpressing HeLa cells and hPSCs in the presence of indicated peptides. Red: fluorophore in amplified DNA circle, and Blue: DAPI stained nucleus. Scale bars, 50 μm. Unpaired Student’s t-test was used. Data are presented as mean values ± SEM. All statistical test used were two-sided. The minimum number of independent biological replicate experiments was b–d n = 3. The experiments were conducted three times, each iteration producing consistent results.
(§1) For CPP-conjugated peptide delivery, HeLa, 293T, and PA-1 cells were incubated with CPP-conjugated peptides or CPP-FITC at 2 μM in DMEM with 10% FBS for 12 h a day before cell harvest. hPSCs were treated with CPP-conjugated peptides at 10 μM in mTeSR Plus Medium, and the peptide-containing medium was changed every day over 10 days. The ROCK inhibitor (Tocris Bioscience, Y-27632) treated-hPSCs were dissociated into single cells using Accutase (Merck, SCR005) and differentiated into ectoderm, mesoderm, and endoderm using the STEMdiff Trilineage Differentiation Kit ([…] Technologies, 05230) following the manufacturer’s protocol. Differentiated cells treated with CPP-conjugated peptides were analysed at 0, 3, and 5 days for ectoderm and endoderm, and at 0, 3, and 4 days for mesoderm.
Total RNA purification and RT-qPCR
Total RNA was extracted using TRIzol reagent (Invitrogen) according to the manufacturer’s protocol. After extraction, RNA was incubated with RQ1 RNase-Free DNase (Promega) to remove the exogenous and endogenous DNA.
cDNA was synthesised using RevertAid Reverse Transcriptase (Thermo Fisher Scientific, EP0441) with synthesised random hexamer (Macrogen) for total RNA or stem-loop primers for miRNA. For RT-qPCR reactions, the SensiFAST SYBR No-ROX kit (Meridian Bioscience) was used according to the manufacturer’s protocol. All data analysis and visualisation were conducted using R 3.6.1 [www.r-project.org] or GraphPad Prism 10. RT primers for miRNA and RT-qPCR primer sequences are provided in Supplementary Data 6.
Fold change in NMD efficiency represents the ratio of test NMD (PTC-containing transcript) to control NMD (PTC-free transcript), where NMD is the relative abundance of PTC-containing mRNA divided by the relative abundance of PTC-free mRNA. The abundance of MUP mRNA was used as the reference.

CHA15 cells [2] = test: Immunostaining of SOX1, DLK1 and LHX2 during ectodermal differentiation (Fig. 7b); assay type: cell-based, human; conditions: for DLK1 fluorescence quantification, mean / LHX2 fluorescence quantification, mean / SOX1 fluorescence quantification, mean: mean of set1-set4
Procedure: as §1
hPSCs or differentiated cells were fixed in 4% paraformaldehyde (Sigma-Aldrich). After 15–20 min, the cells were washed with 0.1% bovine serum albumin in phosphate-buffered saline (BSA/PBS) thrice and blocked for 1 h by adding 0.3% Triton X-100 (Sigma-Aldrich) and 10% normal goat serum (NGS; Fitzgerald industries, NG22S). After blocking, cells were incubated with the following primary antibodies: anti-UPF1 (Cell Signaling Technology, 12040; 1:500), LIN28A (Cell Signaling Technology, 3978; 1:500), OCT4 (Santa Cruz, sc-5279; 1:500), NANOG (Cell Signaling Technology, 4903; 1:500), DLK1 (GeneTex, GTX60511; 1:500), SOX1 (Cell Signaling Technology, 4194; 1:500), or LHX2 (GeneTex, GTX129241; 1:500). Primary antibodies were incubated overnight at 4 °C followed by incubation with the following secondary antibodies: Cy3 (Jackson ImmunoResearch, 115-165-146; 1:500) or Alexa Fluor 488 (Invitrogen, A-11008; 1:500) followed by the incubation with secondary fluorescence-conjugated antibodies for 1 h. The cells were mounted in […] with DAPI mounting medium (Vector Laboratories, H1200).
Immunofluorescence staining, proximity ligation assay imaging, and cell-penetrating efficiency of CPP-FITC were imaged with a confocal laser scanning microscope (Leica, TSC SP5) or immunofluorescence microscope (Leica, DM5000B). Z-stacks were captured, with sections spanning the entire cell. The LAS X Life Science program was used to obtain the maximum intensity projections and cross-sections of the confocal images.

CHA15 cells [3] = test: Flow cytometry (FACS) of OCT4- and NANOG-positive cells (Fig. 6c, Supplementary Fig. 6b); assay type: cell-based, human; conditions: for NANOG-positive cells, FACS (relative), mean / OCT4-positive cells, FACS (relative), mean: CHA15, CPP-peptide 10 μM, mean of 3 sets; for NANOG FACS, difference between means vs P1 ± SEM / OCT4 FACS, difference between means vs P1 ± SEM: CHA15, vs CPP-P1
Procedure: as §1
To evaluate the relative cell number expressing the indicated proteins, CHA15 cells with the indicated CPP-conjugated peptide were fixed with BD Cytofix Fixation Buffer (BD Biosciences Pharmingen, 554655) followed by permeabilization with 0.1% BSA/PBS solution supplemented with 10% NGS and 0.3% Triton X-100 for 1 h at 4 °C. After washing, cells were incubated with the primary antibodies (OCT4 1:1000, NANOG 1:1000, DLK1 1:1000, SOX2 1:1000, LHX2 1:1000) and then, secondary antibody, Alexa Fluor 488 (1:1000), was applied. The positive cells were determined using flow cytometry (FACSCanto, BD Pharmingen), and data was analysed using the Flow Jo-v10 software program.

[4] = ectodermal differentiation, CHA15
[5] = LIN28A-expressing HeLa, CPP-peptide, replicate set1
[6] = LIN28A-expressing HeLa, CPP-peptide, replicate set2
[7] = LIN28A-expressing HeLa, CPP-peptide, replicate set3
[8] = Fig 7b, vs. P1, ± SEM, unpaired t test, df=6

In the case of “KKKWCRKKKSSADEKRYRALKRTAERELLMNA [CPP-P8, CPP conjugated to P8]”, the “increased Gl Ter and GPx1 Ter levels caused by LIN28A” value ([1]; LIN28A-expressing HeLa, 2 μM, 12 h) is reported as “efficiently reversed by CPP-P8”, the “DLK1 and LHX2 expression” value (CHA15 cells [2]; [4]) is reported as “increased DLK1 and LHX2 expression” and the “SOX1 expression” value (CHA15 cells [2]; [4]) is reported as “abrogated SOX1 expression”.

With KKKWCRKKKSSADEKRYRALKRTAERELLMNA [P8] the “relative GPx1 mRNA level” value [1, 5] was 1.006, the “relative Gl mRNA level” value [1, 5] was 1.305 and the “relative GPx1 mRNA level” value [1, 6] was 1.229. For the same substance, the “relative Gl mRNA level” value [1, 6] was 0.7968, the “relative GPx1 mRNA level” value [1, 7] was 0.4585 and the “relative Gl mRNA level” value [1, 7] was 1.128. The “GPx1 mRNA, mean” value ([1]; LIN28A-expressing HeLa, CPP-peptide, mean in t-test output, n = 3) was 0.2385, the “GPx1 mRNA, difference between means (C - B) ± SEM” value ([1]; LIN+P8 minus LIN+P1) was -0.4015 ± 0.06473 and the “Gl mRNA, difference between means (C - B) ± SEM” value ([1]; LIN+P8 minus LIN+P1) was -1.443 ± 0.3024. The “NANOG-positive cells, FACS (relative), mean” value (CHA15 cells [3]) was 0.7195, the “OCT4-positive cells, FACS (relative), mean” value (CHA15 cells [3]) was 0.7944 and the “NANOG FACS, difference between means vs P1 ± SEM” value (CHA15 cells [3]) was -0.2805 ± 0.006838. For the same substance, the “OCT4 FACS, difference between means vs P1 ± SEM” value (CHA15 cells [3]) was -0.2056 ± 0.01612, the “DLK1 fluorescence quantification, mean” value (CHA15 cells [2]; Fig 7b) was 98 and the “LHX2 fluorescence quantification, mean” value (CHA15 cells [2]; Fig 7b) was 65.64. For the same substance, the “SOX1 fluorescence quantification, mean” value (CHA15 cells [2]; Fig 7b) was 40.11, the “DLK1 fluorescence quantification, difference between means ± SEM” value (CHA15 cells [2]; [8]) was 67.91 ± 4.905 and the “LHX2 fluorescence quantification, difference between means ± SEM” value (CHA15 cells [2]; [8]) was 30.85 ± 5.040. For the same substance, the “SOX1 fluorescence quantification, difference between means ± SEM” value (CHA15 cells [2]; [8]) was -20.06 ± 8.048.

With “N-MPELQKLQQLKDE-C [P2, peptide derived from the UPF1 (419–700) domain]” the “NANOG-positive cells, FACS (relative), mean” value (CHA15 cells [3]) was 0.969, the “OCT4-positive cells, FACS (relative), mean” value (CHA15 cells [3]) was 0.9851 and the “NANOG FACS, difference between means vs P1 ± SEM” value (CHA15 cells [3]) was -0.03103 ± 0.01235. The “OCT4 FACS, difference between means vs P1 ± SEM” value (CHA15 cells [3]) was -0.01489 ± 0.005688.

In the case of “N-QKLDQKELQLEPM-C [P1, reference compound]”, the “relative Gl mRNA level” value ([1]; FLAG control (no LIN28A) HeLa, CPP-peptide, replicate set2) is reported as 1.21, the “relative GPx1 mRNA level” value ([1]; FLAG control (no LIN28A) HeLa, CPP-peptide, replicate set3) is reported as 1.026 and the “relative GPx1 mRNA level” value [1, 5] is reported as 2.435. For the same substance, the “relative Gl mRNA level” value [1, 5] was 3.179, the “relative GPx1 mRNA level” value [1, 6] was 2.54 and the “relative Gl mRNA level” value [1, 6] was 5.571. The “relative GPx1 mRNA level” value [1, 7] was 2.254, the “relative Gl mRNA level” value [1, 7] was 4.729 and the “NANOG-positive cells, FACS (relative), mean” value (CHA15 cells [3]) was 1. For the same substance, the “OCT4-positive cells, FACS (relative), mean” value (CHA15 cells [3]) was 1, the “DLK1 fluorescence quantification, mean” value (CHA15 cells [2]; Fig 7b) was 30.09 and the “LHX2 fluorescence quantification, mean” value (CHA15 cells [2]; Fig 7b) was 34.79. For the same substance, the “SOX1 fluorescence quantification, mean” value (CHA15 cells [2]; Fig 7b) was 60.17.
